# Assay results as given in patent US8415342B2, “Besifloxacin ophthalmic composition for the treatment or control of infection” (Bausch & Lomb Incorporated, priority 2008, dated 2013).
# Like-named read-outs stand apart in the source and are kept apart here.
# Tests used:
# Assay type in all cases: cell-based
# S. pneumoniae = assay: MIC and MBC:MIC ratio, recent ocular isolates; conditions: S. pneumoniae (N = 35), recent ocular isolates
# Staphylococcus aureus = assay: MIC, CLSI broth microdilution, clinical isolates; conditions: for MIC50 / MIC90: Staphylococcus aureus
# [1] = system: Staphylococcus epidermidis; assay: MIC, CLSI broth microdilution, clinical isolates; conditions: for MIC50: Staphylococcus epidermidis
# [2] = system: Staphylococcus lugdunensis; assay: MIC, CLSI broth microdilution, clinical isolates; conditions: Staphylococcus lugdunensis (N = 15)
# [3] = system: Staphylococcus saprophyticus; assay: MIC, CLSI broth microdilution, clinical isolates; conditions: Staphylococcus saprophyticus (N = 101)
# [4] = system: Staphylococcus haemolyticus; assay: MIC, CLSI broth microdilution, clinical isolates; conditions: Staphylococcus haemolyticus (N = 101)
# Staphylococcus warneri = assay: MIC, CLSI broth microdilution, clinical isolates; conditions: Staphylococcus warneri (N = 50)
# Staphylococcus hominis = assay: MIC, CLSI broth microdilution, clinical isolates; conditions: Staphylococcus hominis (N = 50)
# Streptococcus agalactiae = assay: MIC, CLSI broth microdilution, clinical isolates; conditions: Streptococcus agalactiae (N = 100)
# Streptococcus pneumoniae = assay: MIC, CLSI broth microdilution, clinical isolates
# Streptococcus pyogenes = assay: MIC, CLSI broth microdilution, clinical isolates; conditions: Streptococcus pyogenes (N = 101)
# [5] = system: Lancefield group C, F, G streptococci; assay: MIC, CLSI broth microdilution, clinical isolates; conditions: G streptococci (N = 50)
# Viridans streptococci = assay: MIC, CLSI broth microdilution, clinical isolates; conditions: Viridans streptococci (N = 156)
# Citrobacter koseri = assay: MIC, CLSI broth microdilution, clinical isolates; conditions: Citrobacter koseri (N = 100)
# Klebsiella oxytoca = assay: MIC, CLSI broth microdilution, clinical isolates; conditions: Klebsiella oxytoca (N = 50)
# Haemophilus influenzae = assay: MIC, CLSI broth microdilution, clinical isolates; conditions: for MIC50 / MIC90: Haemophilus influenzae
# Legionella pneumophila = assay: microbe, parasite or virus in culture
# Moraxella catarrhalis = assay: MIC, CLSI broth microdilution, clinical isolates; conditions: Moraxella catarrhalis (N = 101)
# Morganella morganii = assay: MIC, CLSI broth microdilution, clinical isolates; conditions: Morganella morganii (N = 51)
# S. aureus = assay: MIC of clinical trial isolates, Studies 373, 433, 434; conditions: Staphylococcus aureus
# S. epidermidis = assay: as above; conditions: Staphylococcus epidermidis, read-out: MIC90
# [6] = Staphylococcus aureus (CNS, N = 16)
# [7] = Staphylococcus aureus (CS, N = 14)
# [8] = Staphylococcus aureus (all phenotypes, N = 30)
# [9] = MRSA, Staphylococcus aureus (MRSA, N = 11)
# [10] = MSSA, Staphylococcus aureus (MSSA, N = 19)
# [11] = Staphylococcus epidermidis (CNS, N = 6)
# [12] = Staphylococcus epidermidis (CS, N = 9)
# [13] = Staphylococcus epidermidis (MSSE, N = 6)
# [14] = Staphylococcus epidermidis (all phenotypes, N = 15)
# [15] = Streptococcus pneumoniae (PSSP, N = 31)
# [16] = Haemophilus influenzae (all phenotypes, N = 40)
# [17] = Haemophilus influenzae (bla negative, N = 24)
# [18] = Haemophilus influenzae (bla positive, N = 16)
smiles,measurement,setting,value
CC[C@H]1OC(=O)[C@H](C)[C@@H](O[C@H]2C[C@@](C)(OC)[C@@H](O)[C@H](C)O2)[C@H](C)[C@@H](O[C@@H]2O[C@H](C)C[C@H](N(C)C)[C@H]2O)[C@](C)(O)C[C@@H](C)CN(C)[C@H](C)[C@@H](O)[C@]1(C)O [Azithromycin],"% S (susceptible isolates, CLSI)",S. pneumoniae,62.9%
same,MIC50,S. pneumoniae; Streptococcus pneumoniae,0.06 µg/mL
same,MIC90,S. pneumoniae; Streptococcus pneumoniae,> 8 µg/mL
same,% S,Staphylococcus aureus; [6],43.8%
same,% S,Staphylococcus aureus; [7],64.3%
same,% S,"Staphylococcus aureus; Staphylococcus aureus (MRSA, N = 11)",9.1%
same,% S,"Staphylococcus aureus; Staphylococcus aureus (MSSA, N = 19)",78.9%
same,% S,Staphylococcus aureus; [8],53.3%
same,MIC50,Staphylococcus aureus; [9],> 8 µg/mL
same,MIC90,Staphylococcus aureus; [9],> 8 µg/mL
same,MIC50,Staphylococcus aureus; [10],1 µg/mL
same,MIC90,Staphylococcus aureus; [10],> 8 µg/mL
same,MIC50,Staphylococcus aureus; [6],> 8 µg/mL
same,MIC90,Staphylococcus aureus; [6],> 8 µg/mL
same,MIC50,Staphylococcus aureus; [7],1 µg/mL
same,MIC90,Staphylococcus aureus; [7],> 8 µg/mL
same,MIC50,Staphylococcus aureus; [8],1 µg/mL
same,MIC90,Staphylococcus aureus; [8],> 8 µg/mL
same,% S,[1]; [11],16.7%
same,% S,[1]; [12],33.3%
same,% S,"[1]; Staphylococcus epidermidis (MRSE, N = 9)",0.0%
same,% S,[1]; [13],66.7%
same,% S,[1]; [14],26.7%
same,MIC90,[1]; [14],> 8 µg/mL
same,MIC50,"[1]; MRSE, Staphylococcus epidermidis (MRSE, N = 9)",> 8 µg/mL
same,MIC50,[1]; [11],> 8 µg/mL
same,MIC50,[1]; [12],> 8 µg/mL
same,MIC50,[1]; [13],0.5 µg/mL
same,MIC50,[1]; [14],> 8 µg/mL
same,% S,[2],46.7%
same,MIC50,[2],> 8 µg/mL
same,MIC90,[2],> 8 µg/mL
same,% S,[3],54.5%
same,MIC50,[3],1 µg/mL
same,MIC90,[3],> 8 µg/mL
same,% S,[4],26.7%
same,MIC50,[4],> 8 µg/mL
same,MIC90,[4],> 8 µg/mL
same,% S,Staphylococcus warneri,34.0%
same,MIC50,Staphylococcus warneri,> 8 µg/mL
same,MIC90,Staphylococcus warneri,> 8 µg/mL
same,% S,Staphylococcus hominis,16.0%
same,MIC50,Staphylococcus hominis,> 8 µg/mL
same,MIC90,Staphylococcus hominis,> 8 µg/mL
same,% S,Streptococcus agalactiae,73.0%
same,MIC50,Streptococcus agalactiae; read-out: MIC50,0.06 µg/mL
same,MIC90,Streptococcus agalactiae; read-out: MIC90,> 8 µg/mL
same,% S,"Streptococcus pneumoniae; Streptococcus pneumoniae (PISP, N = 2)",0.0%
same,% S,"Streptococcus pneumoniae; Streptococcus pneumoniae (PRSP, N = 2)",50.0%
same,% S,Streptococcus pneumoniae; [15],67.7%
same,MIC50,Streptococcus pneumoniae; [15],0.06 µg/mL
same,MIC90,Streptococcus pneumoniae; [15],>8 µg/mL
same,% S,"Streptococcus pneumoniae; Streptococcus pneumoniae (all phenotypes, N = 35)",62.9%
same,MIC50,"Streptococcus pneumoniae; Streptococcus pneumoniae (all phenotypes, N = 35), read-out: MIC50",0.06 µg/mL
same,MIC90,"Streptococcus pneumoniae; Streptococcus pneumoniae (all phenotypes, N = 35), read-out: MIC90",> 8 µg/mL
same,% S,Streptococcus pyogenes,85.1%
same,MIC50,Streptococcus pyogenes; read-out: MIC50,0.06 µg/mL
same,MIC90,Streptococcus pyogenes; read-out: MIC90,8 µg/mL
same,% S,[5],74.0%
same,MIC50,[5]; read-out: MIC50,0.06 µg/mL
same,MIC90,[5]; read-out: MIC90,> 8 µg/mL
same,% S,Viridans streptococci,53.2%
same,MIC50,Viridans streptococci; read-out: MIC50,0.06 µg/mL
same,MIC90,Viridans streptococci; read-out: MIC90,> 8 µg/mL
same,MIC50,Citrobacter koseri,8 µg/mL
same,MIC90,Citrobacter koseri,> 8 µg/mL
same,MIC50,Klebsiella oxytoca,> 8 µg/mL
same,MIC90,Klebsiella oxytoca,> 8 µg/mL
same,% S,Haemophilus influenzae; [16],100.0%
same,MIC Range,Haemophilus influenzae; [16],≦0.004-2 μg/mL
same,% S,Haemophilus influenzae; [17],100.0%
same,MIC Range,Haemophilus influenzae; [17],≦0.004-2 μg/mL
same,% S,Haemophilus influenzae; [18],100.0%
same,MIC Range,Haemophilus influenzae; [18],0.06 to 1 µg/mL
same,MIC50,Haemophilus influenzae; [16],0.5 µg/mL
same,MIC90,Haemophilus influenzae; [16],1 µg/mL
same,MIC50,Haemophilus influenzae; [17],0.5 µg/mL
same,MIC90,Haemophilus influenzae; [17],2 µg/mL
same,MIC50,Haemophilus influenzae; [18],0.5 µg/mL
same,MIC90,Haemophilus influenzae; [18],1 µg/mL
same,MIC50,Legionella pneumophila; Legionella pneumophila,0.12 µg/mL
same,MIC90,Legionella pneumophila; Legionella pneumophila,1 µg/mL
same,MIC Range,Legionella pneumophila; Legionella pneumophila (N = 50),0.03 to 1 µg/mL
same,% S,Moraxella catarrhalis,100.0%
same,MIC50,Moraxella catarrhalis,0.03 µg/mL
same,MIC90,Moraxella catarrhalis,0.03 µg/mL
same,MIC Range,Moraxella catarrhalis,0.015 to 0.06 µg/mL
same,MIC50,Morganella morganii,> 8 µg/mL
same,MIC90,Morganella morganii,> 8 µg/mL
same,MIC90,"S. aureus; MRSA, S. aureus MRSA-CR, N 17, read-out: MIC90",> 8 µg/mL
same,MIC90,"S. aureus; MRSA, S. aureus MRSA-CS, N 9, read-out: MIC90 (due to limited isolates, highest MIC value is given)",> 8 µg/mL
same,MIC90,"S. aureus; MSSA, S. aureus MSSA-CR, N 17, read-out: MIC90",> 8 µg/mL
same,MIC90,"S. aureus; MSSA, S. aureus MSSA-CS, N 144, read-out: MIC90",> 8 µg/mL
same,MIC90,"S. epidermidis; MRSE, S. epidermidis MRSE-CR, N 24",> 8 µg/mL
same,MIC90,"S. epidermidis; MRSE, S. epidermidis MRSE-CS, N 27",> 8 µg/mL
same,MIC90,"S. epidermidis; S. epidermidis MSSE-CR, N 10",> 8 µg/mL
same,MIC90,"S. epidermidis; S. epidermidis MSSE-CS, N 50",> 8 µg/mL
